The text below walks through data of patent US7345065B2, “Methods and compositions for alleviating pain” (Allergan, Inc., priority 2002, dated 2008).

As a reminder, the EC50 is the concentration at which the effect is half-maximal. Higher therefore signals a need for much substance.

What all share (format): cell-based
The target of assay [1] is T1, bovine α-1A (Bos taurus, UniProt P18130).
T1 construct: expressed in transfected cells; host or cells: NIH-3T3
T1 sequence (P18130 1-466): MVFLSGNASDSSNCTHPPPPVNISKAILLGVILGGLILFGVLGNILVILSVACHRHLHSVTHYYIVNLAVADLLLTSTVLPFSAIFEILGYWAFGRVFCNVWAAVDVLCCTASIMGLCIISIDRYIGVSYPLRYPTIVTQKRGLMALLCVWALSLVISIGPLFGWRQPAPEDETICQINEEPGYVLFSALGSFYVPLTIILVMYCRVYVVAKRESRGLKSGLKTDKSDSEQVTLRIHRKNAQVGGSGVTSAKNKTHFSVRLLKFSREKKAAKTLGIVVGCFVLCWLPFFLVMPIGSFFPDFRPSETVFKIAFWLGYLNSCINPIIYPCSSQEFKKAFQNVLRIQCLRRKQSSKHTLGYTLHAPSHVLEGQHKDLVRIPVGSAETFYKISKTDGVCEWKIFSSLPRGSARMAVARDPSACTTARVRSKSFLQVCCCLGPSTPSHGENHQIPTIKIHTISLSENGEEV
Description: RSAT assay, α-1A receptor. The note with it: NA = not active (EC50 ≧ 10,000). From the text:
Agonist and antagonist activity, including selectivity and specificity, can be characterized using any of a variety of routine assays, including, without limitation, Receptor Selection and Amplification Technology (RSAT) assays (Messier et al., Pharmacol. Toxicol. 76:308-11 (1995); Conklin et al., Nature 363:274-6 (1993)); cyclic AMP assays (Shimizu et al., J. Neurochem. 16:1609-1619 (1969)); and cytosensor microphysiometry assays (Neve et al., J. Biol. Chem. 267:25748-25753 (1992)). Such assays generally are performed using cells that naturally express only a single α-adrenergic receptor subtype, or using transfected cells expressing a single recombinant α-adrenergic receptor subtype. […]
The RSAT assay measures receptor-mediated loss of contact inhibition resulting in selective proliferation of receptor-containing cells in a mixed population of confluent cells. The increase in cell number is assessed with an appropriate detectable marker gene such as β-galactosidase, if desired, in a high throughput or ultra high throughput assay format. […]
As an example, an RSAT assay can be performed essentially as follows. […] After washing with phosphate-buffered saline, β-galactosidase activity is determined by adding 200 μl of chromogenic substrate (3.5 mM O-nitrophenyl-β-D-galactopyranoside/0.5% NP-40 in phosphate buffered saline), incubating overnight at 30°, and measuring optical density at 420 nm. […]

For assay [2], the target named is T2, rat α-2B (RNG gene) (Rattus norvegicus, UniProt P19328).
T2 construct: expressed in transfected cells; host or cells: NIH-3T3
T2 sequence (P19328 1-453): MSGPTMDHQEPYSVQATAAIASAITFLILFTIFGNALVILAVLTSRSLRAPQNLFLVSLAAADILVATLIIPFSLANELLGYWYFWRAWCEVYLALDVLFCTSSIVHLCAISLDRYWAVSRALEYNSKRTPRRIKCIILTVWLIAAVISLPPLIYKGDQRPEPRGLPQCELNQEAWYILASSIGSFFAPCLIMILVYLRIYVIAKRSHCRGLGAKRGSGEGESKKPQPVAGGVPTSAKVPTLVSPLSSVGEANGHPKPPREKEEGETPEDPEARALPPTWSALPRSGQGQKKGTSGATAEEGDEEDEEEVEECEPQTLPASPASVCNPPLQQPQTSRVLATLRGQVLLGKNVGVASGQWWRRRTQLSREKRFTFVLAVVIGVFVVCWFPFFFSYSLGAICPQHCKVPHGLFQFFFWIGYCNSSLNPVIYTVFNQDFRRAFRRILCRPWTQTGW
Description: RSAT assay, α-2B receptor. The note with it: for EC50: NA = not active (EC50 ≧ 10,000); for fold greater activity at the α-2B receptor than the α-2C receptor: RSAT; for Emax: read-out: % efficacy 2B. From the text:
(§1) Agonist and antagonist activity, including selectivity and specificity, can be characterized using any of a variety of routine assays, including, without limitation, Receptor Selection and Amplification Technology (RSAT) assays (Messier et al., Pharmacol. Toxicol. 76:308-11 (1995); Conklin et al., Nature 363:274-6 (1993)); cyclic AMP assays (Shimizu et al., J. Neurochem. 16:1609-1619 (1969)); and cytosensor microphysiometry assays (Neve et al., J. Biol. Chem. 267:25748-25753 (1992)). Such assays generally are performed using cells that naturally express only a single α-adrenergic receptor subtype, or using transfected cells expressing a single recombinant α-adrenergic receptor subtype. The adrenergic receptor can be a human receptor or homolog thereof having a similar pharmacology. As disclosed herein, RSAT assays were performed using cells transiently transfected with human α-2A (c10 gene); rat α-2B (RNG gene); human α-2C (c4 gene); bovine α-1A; hamster α-1B; and rat α-1D.
(§2) The RSAT assay measures receptor-mediated loss of contact inhibition resulting in selective proliferation of receptor-containing cells in a mixed population of confluent cells. The increase in cell number is assessed with an appropriate detectable marker gene such as β-galactosidase, if desired, in a high throughput or ultra high throughput assay format. Receptors that activate the G protein, Gq, elicit the proliferative response. α-adrenergic receptors, which normally couple to Gi, activate the RSAT response when coexpressed with a hybrid Gq protein containing a Gi receptor recognition domain, designated Gq/i5.
(§3) As an example, an RSAT assay can be performed essentially as follows. NIH-3T3 cells are plated at a density of 2×10^6 cells in 15 cm dishes and maintained in Dulbecco's modified Eagle's medium supplemented with 10% calf serum. One day later, cells are cotransfected by calcium phosphate precipitation with mammalian expression plasmids encoding p-SV-β-galactosidase (5-10 μg), receptor (1-2 μg) and G protein (1-2 μg). Carrier DNA, for example 40 μg salmon sperm DNA, also can be included to increase transfection efficiency. Fresh media is added on the following day; one to two days later, cells are harvested and frozen in 50 assay aliquots. Transfected cells are thawed, and 100 μl of cells added to 100 μl aliquots of compound to be tested, with various concentrations assayed in triplicate, for example, in 96-well plates. Incubation continues for 72 to 96 hours at 37°. After washing with phosphate-buffered saline, β-galactosidase activity is determined by adding 200 μl of chromogenic substrate (3.5 mM O-nitrophenyl-β-D-galactopyranoside/0.5% NP-40 in phosphate buffered saline), incubating overnight at 30°, and measuring optical density at 420 nm. The absorbancy is a measure of enzyme activity, which depends on cell number and reflects receptor-mediated cell proliferation. The EC50 and maximal effect (efficacy) of each drug at each receptor is determined.

In assay [3] the target is T3, human α-2C (c4 gene) (Homo sapiens, UniProt P18825).
T3 construct: expressed in transfected cells; host or cells: NIH-3T3
T3 sequence (P18825 1-462): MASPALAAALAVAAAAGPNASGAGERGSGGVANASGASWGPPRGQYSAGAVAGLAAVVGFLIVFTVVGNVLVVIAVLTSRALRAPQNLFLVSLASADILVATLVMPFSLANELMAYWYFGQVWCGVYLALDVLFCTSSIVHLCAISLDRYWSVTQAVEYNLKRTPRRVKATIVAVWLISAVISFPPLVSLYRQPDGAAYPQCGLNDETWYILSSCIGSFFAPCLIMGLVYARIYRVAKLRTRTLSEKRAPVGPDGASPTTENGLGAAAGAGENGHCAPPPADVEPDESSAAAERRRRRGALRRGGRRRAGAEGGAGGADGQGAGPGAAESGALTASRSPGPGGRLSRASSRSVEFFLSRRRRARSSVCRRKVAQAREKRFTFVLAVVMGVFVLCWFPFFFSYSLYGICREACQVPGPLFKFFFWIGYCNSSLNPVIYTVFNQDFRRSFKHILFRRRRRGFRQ
In words: RSAT assay, α-2C receptor. The note with it: for EC50: NA = not active (EC50 ≧ 10,000); for Emax: in brackets under the RSAT activity, printed without % sign, read-out: % efficacy 2C.
Excerpt: as §1, §2, §3

In assay [1], `O=C1c2ccccc2CCC1Cc1c[nH]c(=S)[nH]1` (racemic) [Compound 3] had a 50% effective concentration (EC50) of more than 2000 nM. Also, in assay [2], the response was half-maximal at 24 nM (EC50), the “fold greater activity at the α-2B receptor than the α-2C receptor” value is “about 100 fold” and the Emax worked out at 90%. This compound showed an EC50 in assay [3] of more than 2000 nM.
For the compound `O=c1[nH]cc(CC2CCc3cc(F)ccc32)[nH]1` (stereo not drawn) [Compound 4], in assay [2], the EC50 worked out at 15 nM, the “fold greater activity at the α-2B receptor than the α-2C receptor” value was “more than 10 fold” and the Emax was 100%. Also, in assay [3], the midpoint of the response, the EC50, lay at 202 nM and the Emax was 0.5%.
As for `S=c1[nH]cc(CC2CC=CC2)[nH]1` [Compound 11], the EC50 in assay [1] was 1710 nM; in assay [2], 42 nM; in assay [3] it was 247 nM. Further, the Emax in assay [2] is 80%; in assay [3] it was 0.3%.
